Measurements from BindingDB's records for doi:10.1021/acs.biochem.6b01308 (Johns Hopkins University, 2017).

Experiments:
[1] = target: T1, Iodotyrosine deiodinase [1-228] (Haliscomenobacter hydrossis, UniProt F4KU78); assay: IYD Binding Assay
T1 construct: 1-228
T1 sequence (F4KU78 whole entry): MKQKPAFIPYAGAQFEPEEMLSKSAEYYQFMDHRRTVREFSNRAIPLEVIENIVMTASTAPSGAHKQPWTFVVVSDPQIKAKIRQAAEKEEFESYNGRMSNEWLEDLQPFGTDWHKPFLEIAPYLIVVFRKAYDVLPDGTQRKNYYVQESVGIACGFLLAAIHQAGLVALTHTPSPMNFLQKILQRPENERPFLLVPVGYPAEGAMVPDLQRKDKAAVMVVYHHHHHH
Procedure: (§1) Dissociation constants (Kd) for the ligands of IYD were determined by their ability to quench the fluorescence of the oxidized FMN (FMNox) (λex 450 nm, λem 523 nm) in the active site of IYD as previously described [Hu et al., J. Biol. Chem., 290:590-600; McTamney et al., J. Am. Chem. Soc., 131:14212-14213].

[2] = target: T2, Iodotyrosine deiodinase 1 [1-1,32-289] (Homo sapiens, UniProt Q6PHW0); assay: IYD Binding Assay
T2 construct: 1-1,32-289
T2 sequence (Q6PHW0 whole entry): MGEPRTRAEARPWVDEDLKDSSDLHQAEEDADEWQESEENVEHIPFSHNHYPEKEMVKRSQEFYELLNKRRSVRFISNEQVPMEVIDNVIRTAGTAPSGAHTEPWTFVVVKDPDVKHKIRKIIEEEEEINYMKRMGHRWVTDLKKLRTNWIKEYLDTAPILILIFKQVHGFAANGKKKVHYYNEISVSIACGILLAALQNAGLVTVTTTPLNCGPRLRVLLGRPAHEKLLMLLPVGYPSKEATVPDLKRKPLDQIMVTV
Procedure: as §1

Structure (SMILES)	Kd [1]	Kd [2]
Nc1ccc(O)c(I)c1 [4-Amino-2-iodophenol (4A2IP)]	96 µM	
Oc1ccccc1I [2-Iodophenol (2IP)]	67 µM	1410 µM
N#Cc1ccc(O)c(I)c1 [4-Cyano-2-iodophenol (2IPCN)]	1.44 µM	
O=C(O)c1ccc(O)c(I)c1 [4-Hydroxy-3-iodobenzoic acid (2IPCOOH)]	24.1 µM	
N[C@@H](Cc1ccc(O)c(I)c1)C(=O)O	8.2 µM	0.09 µM
